Measurements taken from publication PMC12655551, “Design, Synthesis, and Evaluation of Pyrrole-Based Selective MAO-B Inhibitors with Additional AChE Inhibitory and Neuroprotective Properties Identified via Virtual Screening” (Pharmaceuticals, 2025).

Tests used:
[1] = molecular target: T1, recombinant human MAO-B (hMAOB) (Homo sapiens, UniProt P27338); experiment: biochemical; assay type: biochemical; conditions: for inhibition at 1 µM: 1 µM compound; for IC50: means ± SD of three experiments
T1 sequence (P27338 1-520): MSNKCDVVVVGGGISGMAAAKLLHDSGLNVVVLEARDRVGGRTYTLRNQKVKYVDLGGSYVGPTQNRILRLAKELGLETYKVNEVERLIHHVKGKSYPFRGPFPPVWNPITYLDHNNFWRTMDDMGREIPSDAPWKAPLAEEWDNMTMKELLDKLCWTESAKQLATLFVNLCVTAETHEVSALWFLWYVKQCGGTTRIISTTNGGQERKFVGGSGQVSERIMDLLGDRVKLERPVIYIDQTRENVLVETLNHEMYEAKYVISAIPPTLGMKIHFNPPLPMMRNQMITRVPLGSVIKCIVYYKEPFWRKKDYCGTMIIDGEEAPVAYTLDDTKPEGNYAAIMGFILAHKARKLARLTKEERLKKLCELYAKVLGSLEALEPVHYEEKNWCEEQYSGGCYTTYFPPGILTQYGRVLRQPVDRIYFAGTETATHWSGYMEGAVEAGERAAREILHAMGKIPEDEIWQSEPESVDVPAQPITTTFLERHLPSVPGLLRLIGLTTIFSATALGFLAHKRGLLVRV
Protocol: (§1) Monoamine oxidase (MAO) activity for both recombinant human MAO-A (hMAOA) and MAO-B (hMAOB) was assessed using a fluorometric assay based on the Amplex® UltraRed reagent. This method, originally reported by Bautista-Aguilera et al. and later adapted with minor changes by Kasabova-Angelova et al., detects hydrogen peroxide or peroxidase activity present in enzymes or biological samples. In this assay, Amplex® Red reacts in a 1:1 molar ratio with hydrogen peroxide in the presence of peroxidase, producing the red-fluorescent compound resorufin. Due to resorufin’s strong extinction coefficient (58,000 ± 5000 cm^−1·M^−1), measurements could be accurately taken using either fluorometric or spectrophotometric methods. […] The control conditions included the use of purified hMAOA or hMAOB in reaction buffer, enzyme solutions with hydrogen peroxide, and buffer alone. All the test compounds were initially prepared at a 1 µM final concentration. These compounds were combined with either hMAOA or hMAOB and loaded into a 96-well plate (with eight replicates per test compound), followed by incubation for 30 min at 37 °C in the dark. Subsequently, a 50 µL detection mix was added to each well. This mix contained Amplex® Red, horseradish peroxidase (HRP), and tyramine substrate, all prepared in a reaction buffer. As this enzymatic reaction proceeded continuously, the fluorescence signal was recorded every 30 min (at 0, 30, 60, 90, 120, and 150 min) to track enzymatic kinetics.

[2] = molecular target: T2, AChE (Electrophorus electricus, UniProt O42275); experiment: biochemical; assay type: biochemical; conditions: for inhibition at 200 µM: 200 µM compound; for IC50: means ± SD of three experiments
T2 construct: purchased Sigma-Aldrich, Hamburg, Germany
T2 sequence (O42275 24-633): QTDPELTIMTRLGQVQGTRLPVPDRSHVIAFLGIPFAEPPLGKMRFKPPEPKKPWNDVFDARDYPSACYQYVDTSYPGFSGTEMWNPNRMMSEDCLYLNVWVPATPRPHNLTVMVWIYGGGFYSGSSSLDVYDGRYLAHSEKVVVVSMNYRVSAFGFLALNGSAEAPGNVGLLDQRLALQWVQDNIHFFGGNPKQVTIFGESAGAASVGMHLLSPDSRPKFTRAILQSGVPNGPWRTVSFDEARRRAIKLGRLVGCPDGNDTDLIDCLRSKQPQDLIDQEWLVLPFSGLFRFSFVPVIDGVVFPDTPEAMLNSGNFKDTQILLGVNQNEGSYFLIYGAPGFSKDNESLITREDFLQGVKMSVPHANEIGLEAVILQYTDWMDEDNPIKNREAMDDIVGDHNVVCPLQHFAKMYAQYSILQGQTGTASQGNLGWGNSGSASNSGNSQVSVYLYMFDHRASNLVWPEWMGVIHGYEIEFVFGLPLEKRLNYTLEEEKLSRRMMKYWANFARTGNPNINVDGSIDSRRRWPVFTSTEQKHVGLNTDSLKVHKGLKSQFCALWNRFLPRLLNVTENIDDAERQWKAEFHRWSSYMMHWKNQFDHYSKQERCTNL
Protocol: (§2) AChE and BChE inhibitory activity of the newly synthesized pyrrole-based compounds was measured using the microplate assay described by Ellman et al. with the modifications added by López et al.. The compounds were tested at concentrations between 0.01 and 200 μM. First, they were dissolved in phosphate buffer (PBS) (8 mM K2HPO4, 2.3 mM NaH2PO4, 0.15 M NaCl, pH 7.5), assisted by the addition of no more than 5% MeOH. Then, they were serially diluted with PBS to provide the concentration range needed. Acetylcholinesterase from Electrophorus electricus and butyrylcholinesterase from equine serum (Sigma-Aldrich, Hamburg, Germany) were used with a substrate solution of 5,5′-dithiobis(2-nitrobenzoic acid) (DTNB) with acetylthiocholine iodide (ATCI) or butyrylthiocholine iodide (BTCI), respectively (0.04 M Na2HPO4, 0.2 mM DTNB, 0.24 mM ATCI or BTCI, pH 7.5). A total of 50 μL of AChE or BChE (0.25 U/mL, in PBS) and 50 μL of the tested compound solution were added to the wells. Incubation of the plates was performed at room temperature for 30 min. Then, 100 μL of substrate solution was added to start the enzymatic reaction. […] Enzyme activity was calculated as an inhibition percentage compared to an assay including buffer instead of an inhibitor.

[3] = molecular target: T3, BChE (Equus caballus, UniProt P81908); experiment: biochemical; conditions: for IC50: means ± SD of three experiments, read-out: BChE IC50; for inhibition at 200 µM: read-out: Inhibition Activity 200 µM BChE
T3 construct: purchased Sigma-Aldrich, Hamburg, Germany; host or cells: equine serum
T3 sequence (P81908 whole entry): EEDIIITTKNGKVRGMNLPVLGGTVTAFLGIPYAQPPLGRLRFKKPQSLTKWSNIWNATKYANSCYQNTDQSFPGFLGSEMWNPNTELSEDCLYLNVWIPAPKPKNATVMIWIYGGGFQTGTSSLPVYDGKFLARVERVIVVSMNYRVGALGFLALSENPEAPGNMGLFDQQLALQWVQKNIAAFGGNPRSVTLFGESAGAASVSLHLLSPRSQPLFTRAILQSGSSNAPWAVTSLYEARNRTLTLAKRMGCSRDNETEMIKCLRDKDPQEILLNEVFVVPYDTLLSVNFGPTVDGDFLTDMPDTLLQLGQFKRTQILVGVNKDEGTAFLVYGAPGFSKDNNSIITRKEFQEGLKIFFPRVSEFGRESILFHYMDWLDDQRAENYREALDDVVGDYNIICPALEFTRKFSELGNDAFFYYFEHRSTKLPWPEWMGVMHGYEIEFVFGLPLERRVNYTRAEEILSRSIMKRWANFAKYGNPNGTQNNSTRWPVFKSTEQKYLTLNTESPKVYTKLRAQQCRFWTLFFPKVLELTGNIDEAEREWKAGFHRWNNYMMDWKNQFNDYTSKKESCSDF
Protocol: as §2

[4] = molecular target: T4, recombinant human MAO-A (hMAOA) (Homo sapiens, UniProt P21397); experiment: MAO-A inhibition, fluorometric Amplex UltraRed assay; assay type: biochemical; conditions: for inhibition at 1 µM: 1 µM compound, read-out: Inhibition Activity 1 µM MAO-A; for IC50: means ± SD of three experiments, read-out: MAO-A IC50
T4 sequence (P21397 1-527): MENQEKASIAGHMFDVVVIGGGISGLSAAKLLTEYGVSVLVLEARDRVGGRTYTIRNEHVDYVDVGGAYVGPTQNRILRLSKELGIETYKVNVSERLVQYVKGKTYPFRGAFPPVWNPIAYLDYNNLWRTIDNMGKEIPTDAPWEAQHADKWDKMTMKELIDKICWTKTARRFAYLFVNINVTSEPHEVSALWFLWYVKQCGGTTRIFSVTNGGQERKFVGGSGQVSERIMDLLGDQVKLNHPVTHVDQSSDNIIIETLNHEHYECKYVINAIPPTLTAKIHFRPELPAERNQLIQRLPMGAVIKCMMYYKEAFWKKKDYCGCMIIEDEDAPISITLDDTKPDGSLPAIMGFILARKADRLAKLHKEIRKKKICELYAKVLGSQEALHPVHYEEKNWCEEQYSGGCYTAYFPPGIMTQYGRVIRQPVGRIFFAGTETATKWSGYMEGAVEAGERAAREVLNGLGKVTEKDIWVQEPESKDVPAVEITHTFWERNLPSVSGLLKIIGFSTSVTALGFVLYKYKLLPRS
Protocol: as §1

Q: How did the inhibition at 1 µM [1] turn out when `Cc1ccc(C)n1-c1ccc(O)c(C(=O)O)c1` [EM-DC-18, 5-(2,5-dimethyl-1H-pyrrol-1-yl)-2-hydroxybenzoic acid] was run?
A: 98 ± 7.1%

Q: And the IC50 [1]?
A: > 100 µM

Q: What about the inhibition at 200 µM [2] of the same compound?
A: 16 ± 1.4%

Q: What about the IC50 [2] of the same compound?
A: > 200 µM

Q: What about the IC50 [3] of the same compound?
A: > 200 µM

Q: What about the inhibition at 200 µM [3] of the same compound?
A: 0%

Q: What about the inhibition at 1 µM [4] of the same compound?
A: 98 ± 6.5%

Q: And the IC50 [4]?
A: > 100 µM

Q: Which results are given for `Cc1ccc(C)n1C(CS)C(=O)O` (centres unmarked) [EM-DC-15, 2-(2,5-dimethyl-1H-pyrrol-1-yl)-3-sulfanylpropanoic acid]?
A: inhibition at 1 µM [1]: 70 ± 7.1%; IC50 [1]: 0.53 ± 0.1 µM; inhibition at 200 µM [2]: 63.9 ± 1.29%; IC50 [2]: 131 ± 1.85 µM; IC50 [3]: > 200 µM; inhibition at 200 µM [3]: 19.1 ± 2.47%; inhibition at 1 µM [4]: 70 ± 7.2%; IC50 [4]: 0.55 ± 0.1 µM

Q: How did the inhibition at 1 µM [1] turn out when `Cc1ccc(C)n1C1CCN(Cc2ccccc2)CC1` [EM-DC-25, 1-benzyl-4-(2,5-dimethyl-1H-pyrrol-1-yl)piperidine] was run?
A: 98 ± 7.1%

Q: And the IC50 [1]?
A: > 100 µM

Q: And the inhibition at 200 µM [2]?
A: 74.8 ± 1.47%

Q: What about the IC50 [2] of the same compound?
A: 87.2 ± 5.7 µM

Q: What about the IC50 [3] of the same compound?
A: 104 ± 2.5 µM

Q: What about the inhibition at 200 µM [3] of the same compound?
A: 69.8 ± 0.81%

Q: And the inhibition at 1 µM [4]?
A: 60 ± 7.1%

Q: What about the IC50 [4] of the same compound?
A: 0.33 ± 0.1 µM

Q: How did the inhibition at 1 µM [1] turn out when `Cc1ccc(C)n1-c1ccc(C(=O)NCC(=O)O)cc1` [EM-DC-24, [4-(2,5-dimethyl-1H-pyrrol-1-yl)benzamido]acetic acid] was run?
A: 80 ± 7.1%

Q: And the IC50 [1]?
A: 0.59 ± 0.1 µM

Q: What about the inhibition at 200 µM [2] of the same compound?
A: 24.1 ± 4.1%

Q: What about the IC50 [2] of the same compound?
A: > 200 µM

Q: What about the IC50 [3] of the same compound?
A: > 200 µM

Q: And the inhibition at 200 µM [3]?
A: 0%

Q: What about the inhibition at 1 µM [4] of the same compound?
A: 80 ± 7.1%

Q: And the IC50 [4]?
A: 0.58 ± 0.1 µM

Q: What does the source list for `COc1ccc(C)cc1-n1c(C)ccc1C` [EM-DC-5, 1-(2-methoxy-5-methylphenyl)-2,5-dimethyl-1H-pyrrole]?
A: inhibition at 1 µM [1]: 99 ± 7.1%; IC50 [1]: > 100 µM; inhibition at 200 µM [2]: 39.8 ± 2.64%; IC50 [2]: > 200 µM; IC50 [3]: 73.8 ± 5.96 µM; inhibition at 200 µM [3]: 74 ± 1.56%; inhibition at 1 µM [4]: 98 ± 7.3%; IC50 [4]: > 100 µM

Q: For `Cc1ccc(C)n1C(CO)C(=O)O` (centres unmarked) [EM-DC-22, 2-(2,5-dimethyl-1H-pyrrol-1-yl)-3-hydroxypropanoic acid], which inhibition at 1 µM [1] is on record?
A: 99 ± 7.1%

Q: And the IC50 [1]?
A: > 100 µM

Q: And the inhibition at 200 µM [2]?
A: 0%

Q: What about the IC50 [2] of the same compound?
A: > 200 µM

Q: What about the IC50 [3] of the same compound?
A: > 200 µM

Q: And the inhibition at 200 µM [3]?
A: 0%

Q: What about the inhibition at 1 µM [4] of the same compound?
A: 99 ± 7.2%

Q: What about the IC50 [4] of the same compound?
A: > 100 µM

Q: How did the inhibition at 1 µM [1] turn out when `Cc1ccc(C)n1-c1ccc(C(=O)O)cc1` [EM-DC-2, 4-(2,5-dimethyl-1H-pyrrol-1-yl)benzoic acid] was run?
A: 75 ± 7.1%

Q: And the inhibition at 200 µM [2]?
A: 93.6 ± 4.66%

Q: And the IC50 [2]?
A: 0.75 ± 0.06 µM

Q: And the IC50 [3]?
A: 158 ± 11.8 µM

Q: What about the inhibition at 200 µM [3] of the same compound?
A: 57.2 ± 0.58%

Q: What about the inhibition at 1 µM [4] of the same compound?
A: 75 ± 6.9%

Q: What about the IC50 [4] of the same compound?
A: 0.43 ± 0.1 µM

Q: `Cc1ccc(C)n1-c1ccc(O)cc1` [EM-DC-1, 4-(2,5-dimethyl-1H-pyrrol-1-yl)phenol] was tested. Which inhibition at 1 µM [1] did it give?
A: 99 ± 7.1%

Q: And the IC50 [1]?
A: > 100 µM

Q: What about the inhibition at 200 µM [2] of the same compound?
A: 7.52 ± 2.07%

Q: And the IC50 [2]?
A: > 200 µM

Q: What about the IC50 [3] of the same compound?
A: 173 ± 7.3 µM

Q: And the inhibition at 200 µM [3]?
A: 53.9 ± 2.14%

Q: And the inhibition at 1 µM [4]?
A: 55 ± 7.1%

Q: What about the IC50 [4] of the same compound?
A: 0.32 ± 0.1 µM

Q: Which results are given for `CCC(C(=O)O)n1c(C)ccc1C` (centres unmarked) [EM-DC-21, 2-(2,5-dimethyl-1H-pyrrol-1-yl)butanoic acid]?
A: inhibition at 1 µM [1]: 99 ± 7.1%; IC50 [1]: > 100 µM; inhibition at 200 µM [2]: 0%; IC50 [2]: > 200 µM; IC50 [3]: > 200 µM; inhibition at 200 µM [3]: 0%; inhibition at 1 µM [4]: 99 ± 7.1%; IC50 [4]: > 100 µM
